Data published in ChEMBL document CHEMBL3301361, “Experimental in vitro DMPK and physicochemical data on a set of publicly disclosed compounds”.

assay: physchem; details: octan-1-ol/water, pH 7.4

First: O=C(O)CCC(=O)N1CCC(c2nc(-c3cccs3)no2)CC1
Second: NC(=O)c1cncc(O[C@H]2C[C@H]3CC[C@@H](C2)N3Cc2ccccc2)n1
The logD of the first is lower: -1.27 for the first, 1.1 for the second.

First: c1ccc(-c2ccc(C3CN4CCC3CC4)cc2)cc1 (configuration not stated)
Second: NC(=O)c1cccc(N[C@H]2C[C@H]3CC[C@@H](C2)N3Cc2ccccc2)c1
The logD of the first is higher: 1.76 for the first, 1.01 for the second.

Compared with CCN(CC)C(=O)c1ccc(C2=CC3(CCNCC3)Oc3ccccc32)c(O)c1 [ADL-5747 FREE BASE], CC(C)[C@@H]1N=C(c2ccccc2)c2ccccc2NC1=O is higher in logD: 0.77 for the first, 3.05 for the second.

Compared with C=CCC1(CC(C)C)C(=O)NC(=O)NC1=O [BUTALBITAL], C[C@@H]1C2CCCC1(c1cccc(O)c1)CCN2C (some centres not stated) is lower in logD: 1.48 for the first, 0.52 for the second.

Going from S=C(NC1CCCCC1)N1CCC(c2cnc[nH]2)CC1 [THIOPERAMIDE] to Cc1ccc(NC(=O)c2ccnc(N3CCOCC3)c2)cc1Nc1ccnc(N(C)C2CCN(C)CC2)n1, the logD falls from 2.3 to 1.8.

Going from Nc1nc(Nc2ccc3nc(-c4ccc(F)cc4)cc(N)c3c2)cc(-c2ccc(C(F)(F)F)cc2)n1 to Nc1nc2ccc(Cl)cc2c2nc(-c3ccco3)nn12 [CGS-15943], the logD rises from 1.54 to 3.98.

Compared with NC(=O)c1cn([C@@H]2O[C@H](CO)[C@@H](O)[C@H]2O)c2ncnc(N)c12 [SANGIVAMYCIN], O=C(c1ccc(C(=C2CCN(Cc3cscn3)CC2)c2cccc3cccnc23)cc1)N1CCOCC1 is higher in logD: -0.87 for the first, 2.12 for the second.

For NC(Cc1ccccc1)c1ccccc1 (configuration not stated), the logD was 1.32.

same assay, conditions: octan-1-ol/water, pH 7.4, LogD7.4

First: CC(C)C(NC(=O)Cn1c(-c2ccccc2)ccc(NC(=O)OCc2ccccn2)c1=O)C(=O)C(F)(F)F (configuration not stated)
Second: CC(C)C(NC(=O)Cn1c(-c2ccccc2)ccc(NC(=O)Cc2cccc(C(=O)O)c2)c1=O)C(=O)C(F)(F)F (configuration not stated)
The logD of the first is higher: 1.91 for the first, 0.68 for the second.

First: OCC[C@]1(c2cc3ccccc3o2)CCCNC1
Second: OC1(c2ccccc2)CNCCc2ccccc21 (configuration not stated)
The logD of the first is lower: 0.12 for the first, 1.38 for the second.

Going from Nc1nc(-c2ccc(O)cc2)cc(=O)[nH]1 to O=C(Cc1ccc(O)cc1)c1ccc(O)cc1O, the logD rises from 1.05 to 2.54.

Compared with Cc1cc(Nc2ncc(F)c(N[C@H]3[C@@H](C(N)=O)[C@@H]4C=C[C@H]3C4)n2)ccc1N1CCN(C)CC1, Cc1ncc(-c2nc(Nc3ccc(C(=O)N4CCCN(C)CC4)cc3)ncc2F)n1C(C)C is lower in logD: 2.9 for the first, 2.02 for the second.

Compared with CCCNc1nc(N2CCC[C@@H](CC(=O)O)C2)ccc1C(=O)NC1CCCCC1, CC(C)C(NC(=O)Cn1c(C2CCCCC2)ncc(NC(=O)OCc2ccccc2)c1=O)C(=O)C(F)(F)F (configuration not stated) is higher in logD: 2.33 for the first, 2.87 for the second.

First: Nc1nc2ccccc2n1C(=O)c1ccccc1
Second: Cn1cnc2cc(OC(=O)c3ccccc3)cnc21
The logD of the first is lower: 1.56 for the first, 2.4 for the second.

Going from Nc1[nH]nc2cccc(Cl)c12 to NC(=O)c1cc2ccccc2nc1N, the logD falls from 1.92 to 1.07.

First: CC(O)(C(=O)Nc1ccc(S(=O)(=O)c2ccccc2)cc1)C(F)(F)F (configuration not stated)
Second: COc1ccc(S(=O)(=O)Nc2ccc(-c3ccccc3)n(CC(=O)NC(C(=O)C(F)(F)F)C(C)C)c2=O)cc1 (configuration not stated)
The logD of the first is higher: 2.98 for the first, 2.5 for the second.

Going from CC(C)C(NC(=O)Cn1c(-c2cc(F)cc(F)c2)ncc(N)c1=O)C(=O)C(F)(F)F (configuration not stated) to CC(C)C(NC(=O)Cn1c(-c2ccccc2)ccc(NS(C)(=O)=O)c1=O)C(=O)C(F)(F)F (configuration not stated), the logD rises from 1.38 to 1.77.

Going from Cc1cc2nc(NC(=N)N)nc(C)c2cc1C to Cc1cccc(C)c1NC(=O)C(C)N (configuration not stated) [TOCAINIDE], the logD falls from 0.7 to -0.15.

Compared with Clc1cccc(Nc2ncnc3ccccc23)c1, COc1cc2c(Nc3ccc(Cl)cc3F)ncnc2cc1OCCn1cncn1 is lower in logD: 3.9 for the first, 3.2 for the second.

First: C[C@@H]1CN(c2c(F)c(N)c3c(=O)c(C(=O)O)cn(C4CC4)c3c2F)C[C@H](C)N1 [SPARFLOXACIN]
Second: COc1c(N2CCO[C@@H](CN(C)C)C2)c(F)cc2c(=O)c(C(=O)O)cn(C3CC3)c12
The logD of the first is higher: -0.15 for the first, -0.62 for the second.

Compared with CCN(CC)CCOC(=O)c1ccc(N)cc1 [PROCAINE], CCOC(=O)c1coc2ccccc2c1=O is higher in logD: 0 for the first, 1.81 for the second.

First: Cc1ccccc1N1C(=O)c2cc(S(N)(=O)=O)c(Cl)cc2NC1C (configuration not stated) [METOLAZONE]
Second: CC(C)(C)C(=O)Nc1ccc2c(c1)C(=O)C(=O)c1ccccc1-2
The logD of the first is lower: 1.64 for the first, 2.83 for the second.

Compared with O=c1[nH]c2c(O)ccc([C@@H](O)CNCCc3ccc(CNCCc4ccccc4)cc3)c2s1, COC(=O)[C@H](Cc1ccc([N+](=O)[O-])cc1)NC(=O)c1cccc2ccccc12 is higher in logD: 1.11 for the first, 3.58 for the second.

First: CCCCCCCN(CCc1ccc(OC(C)(C)C(=O)O)cc1)C(=O)Nc1ccc(F)cc1F
Second: CCC(c1nc2ccsc2c(=O)n1Cc1ccc(OC)cc1)N(CCCN)C(=O)c1ccc(C)cc1 (configuration not stated)
The logD of the first is lower: 1.93 for the first, 2.15 for the second.

Going from O=C(Nc1ccc(C(F)(F)F)c(Cl)c1)N1CCN(C[C@@H]2CCCN(C3CC3)C2)CC1 to CC(C)N1CCN(C(=O)NCc2ccc(Cl)c(Cl)c2)CC1, the logD falls from 4.06 to 2.75.

Compared with O=c1[nH]n(C(c2ccccn2)C2CCCC2)c(=O)c2c(O)c3ccc(Cl)cc3nc12 (configuration not stated), CC(C)CC(c1ccncc1)n1[nH]c(=O)c2nc3cc(Cl)ccc3c(O)c2c1=O (configuration not stated) is lower in logD: 1.9 for the first, 1.64 for the second.

Going from Cc1ccc(-c2cc(C(F)(F)F)n[nH]2)cc1NC(=O)c1ccc(OCc2ccccn2)cc1 to Cc1ccc(-c2c[nH]cn2)cc1NC(=O)c1ccc(OCc2ccccn2)cc1, the logD rises from 2.44 to 2.81.

N#Cc1cc(S(=O)(=O)NCC(c2ccccc2)N2CCCCCC2)ccc1F (configuration not stated) and CS(=O)(=O)c1ccc(CC(=O)N(C2CC2)C2CCN(CCC(c3ccccc3)c3ccccc3)CC2)cc1 are within 0.2 log units of each other in logD: 2.71 for the first, 2.89 for the second.

Going from CS(=O)(=O)Nc1cc(Nc2nccc(Nc3c(Cl)ccc4c3OCO4)n2)cc(C(N)=O)c1 to Clc1ccc2c(c1Nc1ncnc3cc(OCCN4CCCC4)cc(OC4CCOCC4)c13)OCO2, the logD rises from 2.28 to 2.6.

First: Nc1ccc2c(c1)C(=O)c1ccccc1-2
Second: O=C1C(=O)c2cccnc2-c2ccccc21
The logD of the first is higher: 2.9 for the first, 1.88 for the second.

First: Cc1cc2n[nH]c(=O)n2c2cc(-c3ccc(CO)cc3)ccc12
Second: Cc1cc2n[nH]c(=O)n2c2cc(-c3ccc[nH]3)ccc12
The logD of the first is lower: 2.86 for the first, 3.29 for the second.

O=C(NC1Cc2ccccc2N(CCO)C1=O)c1cc2cc(Cl)sc2[nH]1 (configuration not stated) and Nc1cccc2c1C(=O)N(Cc1cccc(Cl)c1)C2=O are within 0.2 log units of each other in logD: 3.05 for the first, 3.18 for the second.

Compared with Cc1ccc2c(N)c(C#N)sc2n1, CCNc1nc(N)c(C(=O)c2ccc(Cl)s2)s1 is higher in logD: 2.23 for the first, 3.63 for the second.

First: COc1cc(N2CCN(C(N)=O)CC2)ccc1Nc1ncc(Cl)c(-c2cnc3ccccn23)n1
Second: COc1cc(N2CCN(CCS(C)(=O)=O)CC2)ccc1Nc1ncc(Cl)c(-c2cnc3ccccn23)n1
The logD of the first is higher: 3.3 for the first, 3.1 for the second.

Going from CC(C)Cn1c(=O)[nH]c(=O)c2c(C(=O)N3CCC3)c(Cc3ccccc3C(F)(F)F)sc21 to COC(Cn1c(=O)[nH]c2c(=O)n(CC(=O)NC(C(=O)C(F)(F)F)C(C)C)c(-c3ccccc3)cc2c1=O)OC (configuration not stated), the logD falls from 3 to 1.56.

Compared with COc1cc(N2CCN(C)CC2)c2nc(C(=O)Nc3ccc(N4CCOCC4)cc3)cc(N(C)C)c2c1, Cc1ccc(NC(=O)c2ccnc(N3CCOCC3)c2)cc1Nc1ccnc(OCCCN(C)C)n1 is lower in logD: 3.3 for the first, 1.3 for the second.

First: COc1ccc(-n2sc3ccccc3c2=O)cc1
Second: COc1ccc(-c2c(C)c3ccc(OC)cc3oc2=O)cc1
The logD of the first is lower: 3.02 for the first, 3.31 for the second.

Going from CCO/N=C(\c1ccc(Br)cc1)C1CCN(C2(C)CCN(C(=O)c3c(C)cc[n+]([O-])c3C)CC2)CC1 [ANCRIVIROC] to Cc1cn(C2CCCN(Cc3cccc(Oc4ccc(Cl)cc4)c3)C2)c(=O)[nH]c1=O (configuration not stated), the logD rises from 2.14 to 3.38.

Going from CCC1(c2ccccc2)NC(=O)N(C)C1=O (configuration not stated) [MEPHENYTOIN] to COc1ccc(-c2ccccc2)cc1N1CC(=O)NS1(=O)=O, the logD falls from 1.59 to -1.01.

Compared with Nc1nc(N)c(-c2ccc(NC(=O)C3CC3)cc2)c(COCc2ccccc2)n1, C[C@@H](NC(=O)[C@H]1CCCNC1)c1ccc(Nc2ncc3cc(-c4ccncc4)ccc3n2)cc1 is lower in logD: 2.46 for the first, 1.69 for the second.

First: NC(=O)c1c(N)sc2c1CCCC2
Second: NC(=O)c1sc(-c2ccsc2)cc1N
The logD of the first is lower: 1.84 for the first, 2.23 for the second.

Going from c1cnc2cccnc2c1 to c1ccc2nc(C3=NCCN3)ccc2c1, the logD falls from 0.89 to 0.6.

First: COc1cc(F)ccc1-c1cc(CNC2CCCC2)ccn1
Second: O=C(COCc1ccccn1)N1CCN(c2ccc(Cl)cc2Cl)CC1
The logD of the first is lower: 1.71 for the first, 3.47 for the second.

O=C(Nc1cc(C(F)(F)F)cc(C(F)(F)F)c1)c1cnc(Cl)nc1C(F)(F)F and Cc1ncc(-c2ccnc(Nc3ccc(C(=O)NCCN(C)C)c(F)c3)n2)n1C(C)C are within 0.2 log units of each other in logD: 1.8 for the first, 1.96 for the second.

Going from Cc1oc2cc(O)ccc2c(=O)c1-c1ccccc1 to Cc1cc(O)ccc1N1C(=O)c2ccc(O)cc2C1=O, the logD falls from 2.95 to 2.

Going from O=C(Oc1ccccc1)N1CCOCC1 to CN1CCOc2nc(C#Cc3ccccc3)ccc21, the logD rises from 1.3 to 3.8.

Compared with O=c1[nH]nc2cc(CO)c3ccc(-c4ccc[nH]4)cc3n12, c1ccc(-c2n[nH]c(-c3ccncc3)n2)nc1 is lower in logD: 2.19 for the first, 1.48 for the second.

Compared with CC(C)C(NC(=O)Cn1c(-c2ccccc2)ccc(NC(=O)NCc2cc[n+]([O-])cc2)c1=O)C(=O)C(F)(F)F (configuration not stated), COCCOc1ccc(C(=O)Nc2cc(NC(=O)c3cccc(N(C)C)c3)ccc2C)cc1 is higher in logD: 1.13 for the first, 2.74 for the second.

Compared with COc1ccc2c(c1)N(C[C@H](C)CN(C)C)c1ccccc1S2 [LEVOMEPROMAZINE], COc1ccc(OC)c(-c2c(F)ccc3c(N)c(C(=O)NC(C)C)nnc23)c1 is higher in logD: 2.99 for the first, 3.77 for the second.

Going from Nc1ncnc2sccc12 to Cc1ccc(-c2nccn2C)cc1NC(=O)c1ccc(OCc2ccccn2)cc1, the logD rises from 1.19 to 2.83.

Compared with C1=CCC(c2ccc3ccccc3c2)CNC1 (configuration not stated), Cc1ccc(C(=O)c2cc(O)c(O)c([N+](=O)[O-])c2)cc1 [TOLCAPONE] is lower in logD: 1.64 for the first, 0.74 for the second.

Going from C=CCn1c(=O)c2c(-c3nc(C#N)cn3C)n(Cc3ccnc4ccc(Cl)cc34)nc2n(CC2CC2)c1=O to Cn1cc(S(C)(=O)=O)nc1-c1c2c(=O)n(C)c(=O)n(CC3CC3)c2nn1Cc1ccnc2ccc(Cl)cc12, the logD falls from 3.92 to 2.64.

Compared with O=c1[nH]c2cc(Cl)c(Cl)c([N+](=O)[O-])c2[nH]c1=O [LICOSTINEL], O=CN1CC=C(c2c(F)cc(N3C[C@H](COc4ccon4)OC3=O)cc2F)CC1 is higher in logD: 0.21 for the first, 2.01 for the second.

Going from O=C(Nc1ccc(Nc2ccc(NC(=O)c3ccccc3)c3c2C(=O)c2ccccc2C3=O)c2c1C(=O)c1ccccc1C2=O)c1ccccc1 to CC(=O)Nc1ccc2c(c1)c(-c1cc(NC3CC3)n3ncc(C#N)c3n1)cn2CCC(=O)O, the logD falls from 2.63 to -0.87.
